One assay concerns the target c-Kit(V654A) (Homo sapiens, UniProt P10721, V654A). Nature of the assay: c-Kit(V654A) assay. In kind it is biochemical. The following applies: Table 1; 200 μM ATP. On the procedure:
c-Kit(V654A) (N-terminal GST-tagged, recombinant human c-Kit, amino acids 544-end containing the V654A mutation) is incubated with 8 mM MOPS pH 7.0, 0.2 mM EDTA, 250 μM GGMEDIYEFMGGKKK, 10 mM MgAcetate and [gamma-33P-ATP](specific activity approx. 500 cpm/pmol, concentration 200 μM). The reaction is initiated by the addition of the MgATP mix. After incubation for 40 minutes at room temperature, the reaction is stopped by the addition of 3% phosphoric acid solution. 10 μL of the reaction is then spotted onto a P30 filtermat and washed three times for 5 minutes in 75 mM phosphoric acid and once in methanol prior to drying and scintillation counting.

The target in assay [1] is mutant cKIT (560-576 and V654A) in GIST430/654 cell line (Homo sapiens (Human), UniProt P10721, DEL560-576/V654A). Nature of the assay: Cellular testing of cKIT mutant inhibitors: phospho-Y307-cKIT Luminex assay in GIST430/654 cells. The following applies: Table 1; cKIT autophosphorylation, compounds 45 min; read-out: GIST 430/654 IC50. In kind it is cell-based. On the procedure: Assay Principle for Cellular Testing of cKIT Mutant Inhibitors
Sequence of mutant cKIT (560-576 and V654A) in GIST430/654 cell line (P10721 other isoform, or with tags, fused parts or gaps V654A/del 1-25/del 560-576 limits assumed): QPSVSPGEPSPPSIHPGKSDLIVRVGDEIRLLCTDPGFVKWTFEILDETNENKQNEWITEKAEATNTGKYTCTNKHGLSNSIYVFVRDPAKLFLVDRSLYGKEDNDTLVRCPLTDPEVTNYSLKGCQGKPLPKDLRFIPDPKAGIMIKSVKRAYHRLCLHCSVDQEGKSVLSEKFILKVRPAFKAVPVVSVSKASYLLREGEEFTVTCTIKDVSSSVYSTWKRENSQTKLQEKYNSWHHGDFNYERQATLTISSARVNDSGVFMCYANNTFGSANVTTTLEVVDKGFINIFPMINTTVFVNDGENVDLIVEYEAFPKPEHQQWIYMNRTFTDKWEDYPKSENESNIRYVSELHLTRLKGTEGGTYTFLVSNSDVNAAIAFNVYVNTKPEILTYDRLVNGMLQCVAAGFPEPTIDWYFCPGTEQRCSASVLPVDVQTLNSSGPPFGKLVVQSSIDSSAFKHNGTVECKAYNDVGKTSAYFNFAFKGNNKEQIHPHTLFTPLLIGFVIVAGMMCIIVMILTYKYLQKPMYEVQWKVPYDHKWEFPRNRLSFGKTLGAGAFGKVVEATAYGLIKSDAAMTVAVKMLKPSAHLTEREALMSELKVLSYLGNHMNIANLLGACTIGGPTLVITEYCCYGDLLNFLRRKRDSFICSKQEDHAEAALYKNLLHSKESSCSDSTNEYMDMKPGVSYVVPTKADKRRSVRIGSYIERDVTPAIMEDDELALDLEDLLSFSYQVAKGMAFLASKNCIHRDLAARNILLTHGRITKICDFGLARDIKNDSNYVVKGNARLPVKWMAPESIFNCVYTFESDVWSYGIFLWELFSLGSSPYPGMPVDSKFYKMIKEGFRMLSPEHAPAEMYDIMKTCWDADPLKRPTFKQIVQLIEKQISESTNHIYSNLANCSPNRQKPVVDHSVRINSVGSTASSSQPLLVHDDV
The GIST430/654 cell line expressing mutated constitutively active cKIT receptor tyrosine kinase ([…]560-576 and V654A) was employed for assessing cellular potency of compounds. Cellular activity of mutant cKIT was determined by the degree of cKIT autophosphorylation at tyrosine 307 using a Luminex-based bead assay. GIST430/654 cells were plated with 25,000 cells per well of a 96-well plate in 100 μl medium (85% IMDM/15% FCS supplemented with 100 nM Imatinib). At the following day compounds were added in a serial dilution for 45 min. Then, cells were lysed with 90 μl lysis buffer (20 mM Hepes pH 7.5, 200 mM NaCl, 1.5 mM MgCl2×6H2O, 0.4 mM EDTA, 1% Triton-X-100, 1% Phosphatase-Inhibitor II, 20 mM D-Glycerolphosphat, 0.1% Protease-Inhibitor Cocktail III, 0.01% Benzonase) und lysates were cleared by centrifugation through a 96-well filter plate (0.65 μm). Samples were incubated with Luminex-beads which were coupled with an anti-total cKIT antibody overnight at 4° C. under gentle agitation. For detection of phospho-Y307-cKIT a phosphospecific antibody and a species-specific PE-labelled secondary antibody were added. The amount of phospho-Y307-cKIT was determined in a Luminex 200 instrument measuring 100 events per well within 60 seconds.
Counts from samples treated with compounds were calculated as percent of control from solvent treated (0.3% DMSO) samples. Dose-response curves were fitted and IC50 values were determined using Genedata Screener software.

pIC50: −log10 of the molar value.

Take `COCCOc1cc2[nH]nc(-c3cc(-c4ccc(N5CCN(C)CC5)cc4)no3)c2cc1F` [A37, 5-fluoro-6-(2-methoxyethoxy)-3-{3-[4-(4-methylpiperazin-1-yl)phenyl]-1,2-oxazol-5-yl}-1H-indazole]: the pIC50 on c-Kit(V654A) was 8.70; in assay [1], 7.10.

Turning to `CCOc1ccc(-c2cc(-c3n[nH]c4cc(OCCOC)c(F)cc34)on2)cn1` [A38, 3-[3-(6-ethoxypyridin-3-yl)-1,2-oxazol-5-yl]-5-fluoro-6-(2-methoxyethoxy)-1H-indazole], the pIC50 was 7.46 against c-Kit(V654A) and 5.36 in assay [1].

`COCCOc1cc2[nH]nc(-c3cc(-c4ccc(N5CCN(C)CC5)nc4)no3)c2cc1F` [A39, 5-fluoro-6-(2-methoxyethoxy)-3-{3-[6-(4-methylpiperazin-1-yl)pyridin-3-yl]-1,2-oxazol-5-yl}-1H-indazole]: the results for the pIC50 (against c-Kit(V654A); in assay [1]) were 8.77 and 6.82, respectively.

As to `COCCOc1cc2[nH]nc(-c3cc(-c4ccc(OCCN5CCOCC5)cc4)no3)c2cc1F` [A40, 5-fluoro-6-(2-methoxyethoxy)-3-(3-{4-[2-(morpholin-4-yl)ethoxy]phenyl}-1,2-oxazol-5-yl)-1H-indazole], the pIC50 is 8.57 at c-Kit(V654A) and 6.85 in assay [1].

As to `COCCOc1cc2[nH]nc(-c3cc(-c4ccc(-n5ccccc5=O)cc4)no3)c2cc1F` [A41, 1-(4-{5-[5-Fluoro-6-(2-methoxy-ethoxy)-1H-indazol-3-yl]-isoxazol-3-yl}-phenyl)-1H-pyridin-2-one], the values for the pIC50 (against c-Kit(V654A); in assay [1]) were 8.51 and 6.92, respectively.

Regarding `COCCOc1cc2[nH]nc(-c3cc(-c4ccc(N5CCCNCC5)cc4)no3)c2cc1F` [A42, 3-{3-[4-(1,4-diazepan-1-yl)phenyl]-1,2-oxazol-5-yl}-5-fluoro-6-(2-methoxyethoxy)-1H-indazole], the pIC50 against c-Kit(V654A) was 9.14; in assay [1] it was 6.77.

Take `COCCOc1cc2[nH]nc(-c3cc(-c4ccc(C(=O)N5CCOCC5)cc4)on3)c2cc1F` [A43, (4-{3-[5-fluoro-6-(2-methoxy-ethoxy)-1H-indazol-3-yl]-isoxazol-5-yl}-phenyl)-morpholin-4-yl-methanone]: the pIC50 was 8.66 against c-Kit(V654A) and 6.92 in assay [1].

Regarding `COCCOc1cc2[nH]nc(-c3cc(-c4ccc(C(=O)N5CCCOCC5)cc4)no3)c2cc1F` [A44, 5-fluoro-6-(2-methoxyethoxy)-3-{3-[4-(1,4-oxazepane-4-carbonyl)phenyl]-1,2-oxazol-5-yl}-1H-indazole], the pIC50 was 8.96 against c-Kit(V654A) and 7.39 in assay [1].

With `COCCOc1cc2[nH]nc(-c3cc(-c4ccc(C(=O)N5CCN(C6COC6)CC5)cc4)no3)c2cc1F` [A45, (4-{5-[5-fluoro-6-(2-methoxy-ethoxy)-1H-indazol-3-yl]-isoxazol-3-yl}-phenyl)-(4-oxetan-3-yl-piperazin-1-yl)-methanone], the figures for the pIC50 (against c-Kit(V654A); in assay [1]) were 8.92 and 7.23, respectively.

For `COCCOc1cc2[nH]nc(-c3cc(-c4ccc(C(=O)N5CCNCC5)cc4)no3)c2cc1F` [A46, 5-fluoro-6-(2-methoxyethoxy)-3-{3-[4-(piperazine-1-carbonyl)phenyl]-1,2-oxazol-5-yl}-1H-indazole], the pIC50 at c-Kit(V654A) was 9.02; in assay [1], 7.24.

Take `COCCOc1cc2[nH]nc(-c3cc(-c4ccc(N=S(C)(C)=O)cc4)no3)c2cc1F` [A47, [(4-{5-[5-fluoro-6-(2-methoxyethoxy)-1H-indazol-3-yl]-1,2-oxazol-3-yl}phenyl)imino]dimethyl-lambda6-sulfanone]: the pIC50 is 8.62 against c-Kit(V654A) and 7.11 in assay [1].

With `COC(CO)COc1cc2[nH]nc(-c3cc(-c4ccc(C(=O)N(C)C)cc4)no3)c2cc1F` (stereo not drawn) [A49, 4-{5-[5-fluoro-6-(3-hydroxy-2-methoxypropoxy)-1H-indazol-3-yl]-1,2-oxazol-3-yl}-N,N-dimethylbenzamide], the pIC50 was 8.72 at c-Kit(V654A) and 6.30 in assay [1].

As to `C[C@H]1CN(C)CCN1C(=O)c1ccc(-c2cc(-c3n[nH]c4cc(C(F)(F)F)ccc34)on2)cc1` [A50, 3-(3-{4-[(2S)-2,4-dimethylpiperazine-1-carbonyl]phenyl}-1,2-oxazol-5-yl)-6-(trifluoromethyl)-1H-indazole], the pIC50 at c-Kit(V654A) is 7.85; in assay [1], 6.14.

For `COCCOc1cc2[nH]nc(-c3cc(-c4ccc(C(=O)N5CCC[C@H]5CO)cc4)no3)c2cc1F` [A51, [(2S)-1-(4-{5-[5-fluoro-6-(2-methoxyethoxy)-1H-indazol-3-yl]-1,2-oxazol-3-yl}benzoyl)pyrrolidin-2-yl]methanol], the figures for the pIC50 (against c-Kit(V654A); in assay [1]) were 9.06 and 7.24, respectively.

Turning to `COCCOc1cc2[nH]nc(-c3cc(-c4ccc(C(=O)N5CCC[C@@H]5CO)cc4)no3)c2cc1F` [A52, [(2R)-1-(4-{5-[5-fluoro-6-(2-methoxyethoxy)-1H-indazol-3-yl]-1,2-oxazol-3-yl}benzoyl)pyrrolidin-2-yl]methanol], the pIC50 is 9.09 at c-Kit(V654A) and 7.26 in assay [1].

Consider `COCCOc1cc2[nH]nc(-c3cc(-c4ccc(C(=O)N5CC(N6CCOCC6)C5)cc4)no3)c2cc1F` [A53, 5-fluoro-6-(2-methoxyethoxy)-3-(3-{4-[3-(morpholin-4-yl)azetidine-1-carbonyl]phenyl}-1,2-oxazol-5-yl)-1H-indazole], for which the values for the pIC50 (on c-Kit(V654A); in assay [1]) were 8.85 and 7.82, respectively.

As to `COCCOc1cc2[nH]nc(-c3cc(-c4ccc(C(=O)N5CCN(C)CC5CO)cc4)no3)c2cc1F` (stereo not drawn) [A54, [1-(4-{5-[5-fluoro-6-(2-methoxyethoxy)-1H-indazol-3-yl]-1,2-oxazol-3-yl}benzoyl)-4-methylpiperazin-2-yl]methanol], the results for the pIC50 (against c-Kit(V654A); in assay [1]) were 9.14 and 6.89, respectively.

On to `COCCOc1cc2[nH]nc(-c3cc(-c4ccc(C(=O)N5CCC[C@@H]5CS(C)(=O)=O)cc4)no3)c2cc1F` [A55, 5-fluoro-3-(3-{4-[(2R)-2-(methanesulfonylmethyl)pyrrolidine-1-carbonyl]phenyl}-1,2-oxazol-5-yl)-6-(2-methoxyethoxy)-1H-indazole], for which the pIC50 was 9.14 against c-Kit(V654A) and 7.19 in assay [1].

For `COCCOc1cc2[nH]nc(-c3cc(-c4ccc(C(=O)N5CC(C)(N)C5)cc4)no3)c2cc1F` [A56, 1-(4-{5-[5-fluoro-6-(2-methoxyethoxy)-1H-indazol-3-yl]-1,2-oxazol-3-yl}benzoyl)-3-methylazetidin-3-amine], the pIC50 at c-Kit(V654A) was 8.80; in assay [1], 6.77.

Regarding `COCCOc1cc2[nH]nc(-c3cc(-c4ccc(C(=O)N5CC(N6CCS(=O)(=O)CC6)C5)cc4)no3)c2cc1F` [A57, 4-[1-(4-{5-[5-fluoro-6-(2-methoxyethoxy)-1H-indazol-3-yl]-1,2-oxazol-3-yl}benzoyl)azetidin-3-yl]-1lambda6-thiomorpholine-1,1-dione], the values for the pIC50 (against c-Kit(V654A); in assay [1]) were 8.72 and 6.74, respectively.

Take `COCCOc1cc2[nH]nc(-c3cc(-c4ccc(C(=O)N5CC[C@@H]5C(C)(C)O)cc4)no3)c2cc1F` [A58, 2-[(2R)-1-(4-{5-[5-fluoro-6-(2-methoxyethoxy)-1H-indazol-3-yl]-1,2-oxazol-3-yl}benzoyl)azetidin-2-yl]propan-2-ol]: the pIC50 against c-Kit(V654A) was 9.11; in assay [1], 7.28.

The values above are taken from patent US20260042753A1 (Merck Patent GmbH, priority 2019, published 2026).
